Results as given in patent US20180057547A1, “DIAGNOSTIC AND THERAPEUTIC EPITOPE, AND TRANSGENIC PLANT” (OXFORD UNIVERSITY INNOVATION LIMITED, priority 1999, published 2018).
“Also recorded” adds a separate entry of the source.

Legend:
[1] = system: PBMC from coeliac subjects; assay: IFNγ ELISPOT with PBMC of coeliac disease subjects after bread/gluten challenge; format: cell-based, human; details: for Mean response as % of the response to the immunodominant epitope: 57-73 A-gliadin epitope substituted at position 65, synthetic peptides 50 μg/ml, 3 coeliac subjects, 6 days after commencing gluten challenge; for ELISpot response as % A-gliadin 57-73 QE65, E-substituted: glutamate-substituted peptide; for ELISpot response as % A-gliadin 57-73 QE65, E-substituted / ELISpot response as % A-gliadin 57-73 QE65, Wildtype + tTG / ELISpot response as % A-gliadin 57-73 QE65, Wild type: 25 mcg/ml, 4 subjects, blank 5 (1) %; for Elisopt response TG: peptide treated with transglutaminase; for Elisopt response TG / Elisopt response No TG: mean (range), 3 subjects, as in Example 2; for ELISpot response as % A-gliadin 57-73 QE65, Wildtype + tTG: tTG-treated wild type peptide; for ELISpot response as % A-gliadin 57-73 QE65, Wild type: unmodified gliadin peptide; for % bioactivity compared to unmodified A-gliadin 57-73 QE65 / greater bioactivity than the parent peptide: 50 mcg/ml; for % bioactivity compared to unmodified A-gliadin 57-73 QE65: PBMC from 8 subjects, mean response as % A-G 57-73 QE65 mean response, blank 7.1%; for % agonist.: agonist activity compared to A-gliadin 57-73 QE65 as shown in Table 9; for Elisopt response No TG: peptide without transglutaminase treatment; for greater bioactivity than the parent peptide: parent A-gliadin 57-73 QE65
[2] = system: PBMC from newly diagnosed coeliac subjects; assay: Interferon gamma ELISpot with PBMC of newly diagnosed coeliac subjects, gluten challenge after short GFD; format: cell-based, human; details: 25 mcg/ml
Procedure: Newly diagnosed DQ2+ coeliac subjects were recruited from the gastroenterology outpatient service. PBMC were prepared and tested in interferon gamma ELISpot assays before subjects commenced GFD, and at one or two weeks after commencing GFD. In addition, gluten challenge (3 days consuming 4 slices standard white bread, 200 g/day) was performed at one or two weeks after starting GFD. PBMC were prepared and assayed on day six are after commencing gluten challenge. A-gliadin 57-73 QE65 (A), P04724 84-100 QE92 (B) (alone and combined) and A-gliadin 57-73 QP65 (P65) (non-bioactive variant, see above) (all 25 mcg/ml) were assessed.

[3] = system: PBMC from coeliac volunteers; assay: Antagonism of A-gliadin 57-73 QE65 interferon gamma ELISPOT response (simultaneous addition of peptide); format: cell-based, human
Procedure: Simultaneous addition of peptide (50 μg/ml) or buffer and A-gliadin 57-73 QE65 (10 μg/ml) in IFNgamma ELISPOT using PBMC from coeliac volunteers 6 days after commencing 3 day gluten challenge (n=5). Results were expressed as response with peptide plus A-G 57-73 QE65 (mean of duplicates) as % response with buffer plus A-G 57-73 QE65 (mean of 20 replicates). (See Table 9).

[4] = system: gluten-specific T cell clones and lines; details: from original publications; iTCC intestinal T cell clone, iTCL intestinal polyclonal T cell line, bTCC peripheral blood T cell clone; NS not given; cited from earlier work
[5] = system: CD4 or CD8 depleted PBMC from coeliac disease subjects; assay: IFNγ ELISPOT with CD4 and CD8 magnetic bead depleted PBMC; format: cell-based, human
Procedure: Anti-CD4 or anti-CD8 coated magnetic beads (Dynal, Oslo, Norway) were washed four times with RPMI then incubated with PBMC in complete RPMI containing 10% heat inactivated human AB serum (5×10^6 cells/ml) for 30 minutes on ice. Beads were removed using a magnet and cells remaining counted. […] HLA-class II restriction of the immune response to tTG-treated A-gliadin 56-75 was established by incubating PBMC (5×10^6 cells/ml) with anti-HLA-DR (L243), -DQ (L2), and -DP (B7.21) monoclonal antibodies (10 μg/ml) at room temperature for one hour prior to the addition of peptide.

[6] = coeliacs who had followed GFD for only one week
[7] = gluten challenge 2 weeks after commencing GFD, compared with A-gliadin 57-73 QP65 and blank
[8] = substituted variant 50 μg/ml plus A-gliadin 57-73 QE65 10 μg/ml, n=5
[9] = naturally occurring polymorphisms of A-gliadin 57-73 QE65, 50 μg/ml plus A-gliadin 57-73 QE65 10 μg/ml

QLQPFPQPELPYPQPQS (listed as Triticum sp.) [A-gliadin 57-73 QE65]
Mean response as % of the response to the immunodominant epitope [1]: 100% | IFNγ ELISPOT response (result in words) ([1]; PBMC after 3 day bread/gluten challenge): induced maximal responses; also recorded: most potent gliadin peptide for induction of interferon gamma | ELISpot response as % A-gliadin 57-73 QE65, E-substituted [1]: 100% | Frequency ([1]; in vivo (gluten challenge), DQ2): 11/12 in vivo | Elisopt response TG [1]: 100 (100) | ELISpot response as % A-gliadin 57-73 QE65, Wildtype + tTG [1]: 87 (7) % | ELISpot response as % A-gliadin 57-73 QE65, Wild type [1]: 18 (7) % | responses after gluten challenge [2, 6]: did not substantially enhance responses | responses after gluten challenge [2, 7]: did induce responses

N=C(N)NCCC[C@H](N)C(=O)O [R65]
% bioactivity compared to unmodified A-gliadin 57-73 QE65 [1]: 11% | Mean response as % of the response to the immunodominant epitope ([1]; listed as Arginine): 1% | % agonist. [1]: 11% | % Inhibit. of A-gliadin 57-73 QE65 interferon gamma ELISpot response [3, 8]: 13%

PQPQPFPPELPYPQTQP [P04723 77-93 QE85, glutamate-substituted polymorphism GDA3_WHEAT P04723 77-93 (O)]
% Inhibit. of A-gliadin 57-73 QE65 interferon gamma ELISpot response [3, 9]: 10%

N[C@@H](Cc1c[nH]cn1)C(=O)O [H65]
% bioactivity compared to unmodified A-gliadin 57-73 QE65 [1]: 26% | Mean response as % of the response to the immunodominant epitope ([1]; listed as Histidine): 8% | % agonist. [1]: 16% | % Inhibit. of A-gliadin 57-73 QE65 interferon gamma ELISpot response [3, 8]: 20%

PQLPYPQPELPYPQPQP [P04724 84-100 QE92, glutamate-substituted polymorphism GDA4_WHEAT P04724 84-100 (K)]
ELISpot response as % A-gliadin 57-73 QE65, E-substituted [1]: 69 (20) % | ELISpot response as % A-gliadin 57-73 QE65, Wildtype + tTG [1]: 80 (17) % | ELISpot response as % A-gliadin 57-73 QE65, Wild type [1]: 14 (4) % | responses after gluten challenge [2, 6]: did not substantially enhance responses | responses after gluten challenge [2, 7]: did induce responses

QLQPFPQPELPY [reference compound]
ELISpot response as % A-gliadin 57-73 QE65, E-substituted [1]: 8 (3) % | ELISpot response as % A-gliadin 57-73 QE65, Wildtype + tTG [1]: 19 (1) % | ELISpot response as % A-gliadin 57-73 QE65, Wild type [1]: 6 (2) % | Frequency [4]: 12/17 (iTCL)

QLQPFLQPQLPYSQPQP
Elisopt response TG [1]: 3 (0-7) | Elisopt response No TG [1]: 0 (0-1)

QQYPSGEGSFQPSQENPQ [reference compound]
ELISpot response as % A-gliadin 57-73 QE65, E-substituted [1]: 14 (8) % | ELISpot response as % A-gliadin 57-73 QE65, Wildtype + tTG [1]: 9 (3) % | ELISpot response as % A-gliadin 57-73 QE65, Wild type [1]: 10 (3) %

PQPQPFLPQLPYPQPQS
Elisopt response TG [1]: 21 (11-33) | Elisopt response No TG [1]: 10 (0-30)

LQLQPFPQPQLPYPQPQSFP [A-gliadin 56-75, 20mer of A-gliadin, used tTG-treated]
spot forming cells per million CD8 depleted PBMC ([5]; Subject 4, tTG treated peptide 0.1 μM): 29 spot forming cells per million CD8 depleted PBMC | spot forming cells per million CD8 depleted PBMC ([5]; Subject 6, tTG treated peptide 0.1 μM): 535 spot forming cells per million CD8 depleted PBMC | cell subset mediating the IFNγ response ([5]; anti-CD4 and anti-CD8 magnetic bead depletion, two subjects): CD4 T cell-mediated

N[C@@H](CC(=O)O)C(=O)O [D65]
% bioactivity compared to unmodified A-gliadin 57-73 QE65 [1]: 95% | Mean response as % of the response to the immunodominant epitope [1]: 65%

QLQPFPQPQLPYPQPQP
Elisopt response TG [1]: 83 (61-113) | Elisopt response No TG [1]: 12 (0-20)

Y61: A-gliadin 57-73 QE65 variant, Y at position 61 (QLQPYPQPELPYPQPQS)
% bioactivity compared to unmodified A-gliadin 57-73 QE65 [1]: 129% | greater bioactivity than the parent peptide [1]: 30%

PQPQPFPPQLPYPQPQS
Elisopt response TG [1]: 24 (11-43) | Elisopt response No TG [1]: 17 (0-40)

QPQPFPPPELPYPQTQP [Gliα 1,6 58-74 QE66, glutamate-substituted polymorphism Gli alpha 1, 6 58-74 (J)]
% Inhibit. of A-gliadin 57-73 QE65 interferon gamma ELISpot response [3, 9]: 11%

N[C@@H](Cc1ccc(O)cc1)C(=O)O [Y65]
Mean response as % of the response to the immunodominant epitope ([1]; listed as Tyrosine): 8% | % agonist. [1]: 7% | % Inhibit. of A-gliadin 57-73 QE65 interferon gamma ELISpot response [3, 8]: 12%

QLQPFPQPELPYSQPQP [P02863 77-93 QE85, glutamate-substituted polymorphism GDA0_WHEAT P02863 77-93 (F)]
% Inhibit. of A-gliadin 57-73 QE65 interferon gamma ELISpot response [3, 9]: 6%

PQPELPYPQPELPY [reference compound]
ELISpot response as % A-gliadin 57-73 QE65, E-substituted [1]: 48 (9) % | ELISpot response as % A-gliadin 57-73 QE65, Wildtype + tTG [1]: 53 (8) % | ELISpot response as % A-gliadin 57-73 QE65, Wild type [1]: 13 (6) % | Frequency [4]: 11/17 (iTCL)

PQPQPFPPELPYPQPPP [P04726 82-98 QE90, glutamate-substituted polymorphism GDA6_WHEAT P04726 82-98 (P)]
% Inhibit. of A-gliadin 57-73 QE65 interferon gamma ELISpot response [3, 9]: 5%

QLQPFLQPELPYSQPQP [Q41509 77-93 QE85, glutamate-substituted polymorphism Q41509 77-93]
% Inhibit. of A-gliadin 57-73 QE65 interferon gamma ELISpot response ([3]; naturally occurring polymorphisms of A-gliadin 57-73 QE65, 50 μg/ml plus A-gliadin 57-73 QE65 10 μg/ml, polymorphism SEQ ID NO 71): 11% | % Inhibit. of A-gliadin 57-73 QE65 interferon gamma ELISpot response ([3]; naturally occurring polymorphisms of A-gliadin 57-73 QE65, 50 μg/ml plus A-gliadin 57-73 QE65 10 μg/ml, polymorphism SEQ ID NO 76): 6%

PQLPYPQPQLPYPQPQP
Elisopt response TG [1]: 109 (41-152) | Elisopt response No TG [1]: 3 (0-7)

PQPQPFLPELPYPQPQS [P04727 79-95 QE65, glutamate-substituted polymorphism GDA7_WHEAT P04727 79-95 (M)]
% Inhibit. of A-gliadin 57-73 QE65 interferon gamma ELISpot response [3, 9]: 6%

LGQQQPFPPQQPYPQPQPF
Frequency [4]: 1/23 (bTCC)

C[C@@H](O)[C@H](N)C(=O)O [T65]
% bioactivity compared to unmodified A-gliadin 57-73 QE65 [1]: 7% | Mean response as % of the response to the immunodominant epitope [1]: 55% | % agonist. [1]: 19% | % Inhibit. of A-gliadin 57-73 QE65 interferon gamma ELISpot response [3, 8]: 28%

NCCCC[C@H](N)C(=O)O [K65]
% bioactivity compared to unmodified A-gliadin 57-73 QE65 [1]: 8% | Mean response as % of the response to the immunodominant epitope ([1]; listed as Lysine): 4% | % agonist. [1]: 8% | % Inhibit. of A-gliadin 57-73 QE65 interferon gamma ELISpot response [3, 8]: 15%

PQPQPFPPELPYPQPQS [P04725 82-98 QE90, glutamate-substituted polymorphism GDA5_WHEAT P04725 82-98 (N)]
% Inhibit. of A-gliadin 57-73 QE65 interferon gamma ELISpot response [3, 9]: 19%

QLQPFSQPQLPYSQPQP
Elisopt response TG [1]: 2 (0-7) | Elisopt response No TG [1]: 0 (0-0)

PQPQPFPPQLPYPQPPP
Elisopt response TG [1]: 19 (11-33) | Elisopt response No TG [1]: 10 (0-30)

QLQPFPQPQLPYPQPQL
Elisopt response TG [1]: 83 (74-97) | Elisopt response No TG [1]: 19 (0-33)

CC(C)C[C@H](N)C(=O)O [L65]
% bioactivity compared to unmodified A-gliadin 57-73 QE65 [1]: 16% | Mean response as % of the response to the immunodominant epitope [1]: 33% | % agonist. [1]: 26% | % Inhibit. of A-gliadin 57-73 QE65 interferon gamma ELISpot response [3, 8]: 20%

N[C@@H](CS)C(=O)O [C65]
% bioactivity compared to unmodified A-gliadin 57-73 QE65 [1]: 42% | Mean response as % of the response to the immunodominant epitope [1]: 62%

QLQPFPQPELSYSQPQP [Gliα 3-5 57-73 QE65, glutamate-substituted polymorphism Gli alpha 3,4, 5 57-73 (I)]
% Inhibit. of A-gliadin 57-73 QE65 interferon gamma ELISpot response [3, 9]: 7%

Y70: A-gliadin 57-73 QE65 variant, Y at position 70 (QLQPFPQPELPYPYPQS)
% bioactivity compared to unmodified A-gliadin 57-73 QE65 [1]: 129% | greater bioactivity than the parent peptide [1]: 30%

QQLPQPEQPQQSFPEQERPF [reference compound]
ELISpot response as % A-gliadin 57-73 QE65, E-substituted [1]: 10 (5) % | ELISpot response as % A-gliadin 57-73 QE65, Wildtype + tTG [1]: 18 (7) % | ELISpot response as % A-gliadin 57-73 QE65, Wild type [1]: 9 (3) %

GQQGYYPTSPQQSGQ
Frequency [4]: 1/1 (iTCC)

QLQPFPQPQLPYSQPQP
Elisopt response TG [1]: 53 (44-67) | Elisopt response No TG [1]: 5 (1-7)
